Results reported in patent US12600725B2 (Memorial Sloan-Kettering Cancer Center, priority 2013, dated 2026).

Key:
[1] = molecular target: Hsp90α (Homo sapiens, UniProt P07900); test: biochemical; conditions: FP competition, 6 nM Cy3B-GM, 10 nM protein, 4° C. for 24 h
[2] = molecular target: Grp94 (Canis lupus familiaris, UniProt P41148); conditions: read-out: Grp94; FP competition, 6 nM Cy3B-GM, 10 nM protein, 4° C. for 24 h
Grp94, sequence (P41148 with tags, fused parts or gaps DELINS287-327GGGG): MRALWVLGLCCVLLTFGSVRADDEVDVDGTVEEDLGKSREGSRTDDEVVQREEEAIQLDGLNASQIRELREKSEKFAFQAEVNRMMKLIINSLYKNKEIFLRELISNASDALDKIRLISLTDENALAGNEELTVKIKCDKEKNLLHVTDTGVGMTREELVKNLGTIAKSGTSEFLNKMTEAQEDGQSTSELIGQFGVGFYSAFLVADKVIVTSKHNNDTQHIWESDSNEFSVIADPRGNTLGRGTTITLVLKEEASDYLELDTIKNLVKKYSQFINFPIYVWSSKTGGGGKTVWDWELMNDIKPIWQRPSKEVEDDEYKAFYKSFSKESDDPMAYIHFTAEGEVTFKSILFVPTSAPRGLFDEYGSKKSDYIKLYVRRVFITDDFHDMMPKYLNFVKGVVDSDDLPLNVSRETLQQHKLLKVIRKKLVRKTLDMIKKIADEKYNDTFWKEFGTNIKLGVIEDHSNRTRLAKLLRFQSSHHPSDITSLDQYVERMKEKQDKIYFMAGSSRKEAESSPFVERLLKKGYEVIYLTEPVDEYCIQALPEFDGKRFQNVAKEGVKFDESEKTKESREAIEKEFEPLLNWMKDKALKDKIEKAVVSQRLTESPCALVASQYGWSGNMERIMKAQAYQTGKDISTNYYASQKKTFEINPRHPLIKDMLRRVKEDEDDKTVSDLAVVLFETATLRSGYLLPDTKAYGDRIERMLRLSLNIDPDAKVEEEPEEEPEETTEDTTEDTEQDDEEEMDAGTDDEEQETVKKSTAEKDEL

Structure (SMILES)	IC50 [1] [µM]	IC50 [2] [µM]
Nc1ncn(CCCC(F)(F)F)c2nc(Sc3cc(Cl)cc(Cl)c3)nc1-2	> 50	> 10
C#CCCCn1c(Sc2cc(C#N)cc(C#N)c2)nc2c(N)ncnc21 [HJP-III-26, 5-((6-Amino-9-(pent-4-yn-1-yl)-9H-purin-8-yl)thio)isophthalonitrile]	60.3	
C#CCCCn1c(Sc2ccc(C#N)c(C(F)(F)F)c2)nc2c(N)ncnc21 [HJP-III-29, 4-((6-Amino-9-(pent-4-yn-1-yl)-9H-purin-8-yl)thio)-2-(trifluoromethyl)benzonitrile]	4.51	2.41
C#CCCCn1c(Sc2ccc(C#N)c(Br)c2)nc2c(N)ncnc21 [HJP-III-32, 4-((6-Amino-9-(pent-4-yn-1-yl)-9H-purin-8-yl)thio)-2-bromobenzonitrile]	14.3	4.28
C#CCCCn1c(Sc2ccc(C#N)c(Cl)c2)nc2c(N)ncnc21 [HJP-III-33, 4-((6-Amino-9-(pent-4-yn-1-yl)-9H-purin-8-yl)thio)-2-chlorobenzonitrile]	7.6	3.45
C#CCCCn1c(Cc2c(C)cc(C)cc2C)nc2c(N)ncnc21 [HJP-V-36, 9-(Pent-4-yn-1-yl)-8-(2,4,6-trimethylbenzyl)-9H-purin-6-amine]	> 10	> 5
C#CCCCn1c(Cc2ccc(Cl)cc2Cl)nc2c(N)ncnc21 [HJP-V-37, 8-(2,4-Dichlorobenzyl)-9-(pent-4-yn-1-yl)-9H-purin-6-amine]	> 10	0.7
C#CCCCn1c(C(=O)c2ccc(Cl)cc2Cl)nc2c(N)ncnc21 [HJP-V-37T, (6-Amino-9-(pent-4-yn-1-yl)-9H-purin-8-yl)(2,4-dichlorophenyl)methanone]	> 25	0.13 to 0.17
C#CCCCn1c(Cc2c(Cl)cccc2Cl)nc2c(N)ncnc21 [HJP-V-38, 8-(2,6-Dichlorobenzyl)-9-(pent-4-yn-1-yl)-9H-purin-6-amine]	14.4	13.8
C#CCCCn1c(C(=O)c2cc(Cl)cc(Cl)c2)nc2c(N)ncnc21 [HJP-V-39T, (6-Amino-9-(pent-4-yn-1-yl)-9H-purin-8-yl)(3,5-dichlorophenyl)methanone]	> 10	
C#CCCCn1c(Cc2cccc(Cl)c2Cl)nc2c(N)ncnc21 [HJP-V-55, 8-(2,3-Dichlorobenzyl)-9-(pent-4-yn-1-yl)-9H-purin-6-amine]	> 10	
C#CCC(CC)n1c(Sc2ccc(Cl)cc2Cl)nc2c(N)ncnc21 (stereo not drawn) [HJP-V-117, 8-((2,4-dichlorophenyl)thio)-9-(hex-5-yn-3-yl)-9H-purin-6-amine]		0.92
CC(C)NCCCn1c(Sc2cc(Cl)cc(Cl)c2I)nc2c(N)ncnc21 [HJP-V-145]		0.68
CC(C)NCCCn1c(Sc2ccc(F)cc2Cl)nc2c(N)ncnc21 [HJP-VI-25, 8-((2-chloro-4-fluorophenyl)thio)-9-(3-(isopropylamino)propyl)-9H-purin-6-amine]	> 50	
CC(C)NCCCn1c(Sc2ccc(Cl)cc2N)nc2c(N)ncnc21 [HJP-VI-34, 8-((2-amino-4-chlorophenyl)thio)-9-(3-(isopropylamino)propyl)-9H-purin-6-amine]	> 50	
CC#Cc1cc(Cl)cc(Sc2nc3c(N)ncnc3n2CCCNC(C)C)c1 [HJP-VI-50, 8-((3-chloro-5-(prop-1-yn-1-yl)phenyl)thio)-9-(3-(isopropylamino)propyl)-9H-purin-6-amine]	> 50	
CC(C)NCCCn1c(Sc2cc(Cl)cc(Cl)c2)nc2c(N)nc(F)nc21 [HJP-VI-69, 8-((3,5-dichlorophenyl)thio)-2-fluoro-9-(3-(isopropylamino)propyl)-9H-purin-6-amine]		0.135
C/C=C(\C)c1cc(Cl)cc(Sc2nc3c(N)ncnc3n2CCCNC(C)C)c1 [HJP-VI-79, (E)-8-((3-(but-2-en-2-yl)-5-chlorophenyl)thio)-9-(3-(isopropylamino)propyl)-9H-purin-6-amine]		0.124
C#CCCCn1cnc(N)c2nc(Sc3cc(Cl)cc(Cl)c3)nc1-2 [PU-H41]	> 100	
